Measured values taken from PubChem BioAssay (NCI).
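Values below derive from 48-hour exposures of cells grown in 96-well plates, with endpoints linearly interpolated between the two concentrations bracketing the appropriate inhibition level. Here, GI50 denotes the concentration required for 50% inhibition of growth. TGI: total growth inhibition.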

Columns and labels:
Test in all cases: NCI-60 cell line screen, 48 h
U251 CNS = test system: U251 CNS
UACC-257 melanoma = test system: UACC-257 melanoma
SN12C renal = test system: SN12C renal
NCI-H23 lung = test system: NCI-H23 lung
UO-31 renal = test system: UO-31 renal
HCT-15 colon = test system: HCT-15 colon
NCI-H460 lung = test system: NCI-H460 lung
SNB-75 CNS = test system: SNB-75 CNS
SK-MEL-5 melanoma = test system: SK-MEL-5 melanoma
NCI/ADR-RES ovarian = test system: NCI/ADR-RES ovarian
MDA-MB-231 breast = test system: MDA-MB-231 breast
MCF7 breast = test system: MCF7 breast
A498 renal = test system: A498 renal
CAKI-1 renal = test system: CAKI-1 renal
OVCAR-8 ovarian = test system: OVCAR-8 ovarian
RXF 393 renal = test system: RXF 393 renal
TK-10 renal = test system: TK-10 renal
HL-60(TB) leukemia = test system: HL-60(TB) leukemia
OVCAR-4 ovarian = test system: OVCAR-4 ovarian
RPMI-8226 leukemia = test system: RPMI-8226 leukemia
HOP-92 NSCLC = test system: HOP-92 NSCLC
PC-3 prostate = test system: PC-3 prostate
SF-268 CNS = test system: SF-268 CNS
OVCAR-5 ovarian = test system: OVCAR-5 ovarian
KM12 colon = test system: KM12 colon
BT-549 breast = test system: BT-549 breast

`CCOc1cc(-c2ccc[nH]2)[nH]c1/C=C1\N=C(C)C(C(=O)OC)=C1C` gave a GI50 (U251 CNS) of 31.9 nM, a TGI (U251 CNS) of 814 nM and a GI50 (UACC-257 melanoma) of 55.1 nM. For the same compound, the TGI (UACC-257 melanoma) was 939 nM, the GI50 (SN12C renal) was 44.4 nM and the TGI (SN12C renal) was 1720 nM. For the same compound, the GI50 (NCI-H23 lung) was 87.6 nM, the TGI (NCI-H23 lung) was 1920 nM and the GI50 (UO-31 renal) was 25.2 nM. The TGI (UO-31 renal) was 143 nM, the GI50 (HCT-15 colon) was 14.8 nM and the TGI (HCT-15 colon) was 70.5 nM. It also gave a GI50 (NCI-H460 lung) of 25.6 nM, a TGI (NCI-H460 lung) of 1320 nM and a GI50 (SNB-75 CNS) of 36.4 nM. The TGI (SNB-75 CNS) was 300 nM, the GI50 (SK-MEL-5 melanoma) was < 13.3 nM and the TGI (SK-MEL-5 melanoma) was 29.3 nM. It also gave a GI50 (NCI/ADR-RES ovarian) of 43.2 nM, a TGI (NCI/ADR-RES ovarian) of 1470 nM and a GI50 (MDA-MB-231 breast) of 17.1 nM. The TGI (MDA-MB-231 breast) was 279 nM, the GI50 (MCF7 breast) was 36.9 nM and the TGI (MCF7 breast) was 467 nM. The GI50 (A498 renal) was 470 nM, the TGI (A498 renal) was 1920 nM and the GI50 (CAKI-1 renal) was 33.1 nM. The TGI (CAKI-1 renal) was 194 nM, the GI50 (OVCAR-8 ovarian) was 32.9 nM and the TGI (OVCAR-8 ovarian) was 1400 nM. It also gave a GI50 (RXF 393 renal) of 21.9 nM, a TGI (RXF 393 renal) of 88.1 nM and a GI50 (TK-10 renal) of 57.9 nM. It also gave a TGI (TK-10 renal) of 1500 nM, a GI50 (HL-60(TB) leukemia) of 23.5 nM and a TGI (HL-60(TB) leukemia) of 1690 nM. The GI50 (OVCAR-4 ovarian) was 44.9 nM, the TGI (OVCAR-4 ovarian) was 1450 nM and the GI50 (RPMI-8226 leukemia) was 21.6 nM. It also gave a TGI (RPMI-8226 leukemia) of 89.8 nM, a GI50 (HOP-92 NSCLC) of 14.8 nM and a TGI (HOP-92 NSCLC) of 49 nM. It also gave a GI50 (PC-3 prostate) of 35.7 nM, a TGI (PC-3 prostate) of 2130 nM and a GI50 (SF-268 CNS) of 52.6 nM. The TGI (SF-268 CNS) was 1810 nM, the GI50 (OVCAR-5 ovarian) was 55.2 nM and the TGI (OVCAR-5 ovarian) was 1680 nM. The GI50 (KM12 colon) was 25.1 nM, the TGI (KM12 colon) was 1350 nM and the GI50 (BT-549 breast) was 45.1 nM. The TGI (BT-549 breast) was 1920 nM.
